For data set [1], the system named is MV-4-11 cells (human acute myeloid leukemia cell line). The data set is described as follows: In vitro antiproliferative activity, SRB assay, MV-4-11. It is filed as cell-based. As to conditions: MV4-11, 72 h incubation, mean ± SD, LAS, MON, SAL as sodium salts. From the text:
(§1) Each experiment was repeated at least three times separately.
Background: Sulforhodamine B stains cellular protein and so reports cell mass.

In data set [2] the test system is JIMT-1 cells (human breast cancer cell line). The data set is described as follows: In vitro antiproliferative activity, SRB assay, JIMT-1. It is filed as cell-based. The settings on record: mean ± SD, LAS, MON, SAL as sodium salts, '---' = inactive (undetectable IC50 in tested concentration range).
Description: as §1

Data set [3] relates to MCF-7 cells (human breast cancer cell line). The data set is described as follows: In vitro antiproliferative activity, SRB assay, MCF-7. It is filed as cell-based. The settings on record: MCF7, 72 h incubation, mean ± SD, LAS, MON, SAL as sodium salts, '---' = inactive (undetectable IC50 in tested concentration range).
Description: as §1

The subject of data set [4] is SKBR-3 cells (human breast cancer cell line). The data set is described as follows: In vitro antiproliferative activity, SRB assay, SKBR-3. The settings on record: mean ± SD, LAS, MON, SAL as sodium salts. It is filed as cell-based.
Description: as §1

The subject of data set [5] is LoVo cells (human colon adenocarcinoma, drug-sensitive variant). The data set is described as follows: In vitro antiproliferative activity, SRB assay, LoVo. The settings on record: 72 h incubation, mean ± SD, LAS, MON, SAL as sodium salts. It is filed as cell-based.
Description: as §1

The subject of data set [6] is BALB/3T3 cells (normal embryonic fibroblasts). The data set is described as follows: Cytotoxicity on non-tumor cells, SRB assay, BALB/3T3. It is filed as cell-based, murine. As to conditions: Mus musculus, non-tumor cell line, 72 h incubation, mean ± SD, '---' = inactive (undetectable IC50 in tested concentration range).
Description: as §1

Data set [7] relates to MCF10A cells (normal mammary epithelial cell line). The data set is described as follows: Cytotoxicity on non-tumor cells, SRB assay, MCF10A. It is filed as cell-based. The settings on record: Homo sapiens, MCF-10A, 72 h incubation, mean ± SD, '---' = inactive (undetectable IC50 in tested concentration range).
Description: as §1

Data set [8] in a line: In vitro antiproliferative activity, SRB assay, LoVo/DX.
The subject of data set [9] is LoVo/DX cells (doxorubicin-resistant human colon adenocarcinoma sub-line, ABCB1 overexpression). The description is as above. The settings on record: Homo sapiens, LoVo/DX, 72 h, read-out: IC50 LoVo/DX.
[10] abbreviates: Homo sapiens, JIMT-1, 72 h incubation.
The mark [11] stands for this setting: Homo sapiens, SK-BR-3, 72 h incubation.
Setting [12] is: mouse (BALB/3T3), human (LoVo/DX).

This is an account of results in publication PMC7408349, “Synthesis and Anticancer Activity of Dimeric Polyether Ionophores” (Biomolecules, 2020).

As for `C=C(C)[C@@H]1CC[C@]2(C(=O)O)CC[C@]3(C)[C@H](CC[C@@H]4[C@@]5(C)CC[C@H](O)C(C)(C)[C@@H]5CC[C@]43C)[C@@H]12` [BET, betulinic acid], the IC50 was determined as 1420 ± 970 nM in data set [1]; 9900 ± 2320 nM in [2] (setting [10]); 12600 ± 1570 nM in [3]; 7470 ± 1160 nM in data set [4] (setting [11]); 16500 ± 6560 nM in data set [5]; 84800 ± 10000 nM in data set [6]. In addition, the values for the IC50 in data set [7] and in data set [9] were 7230 ± 1240 nM and 8960 ± 1080 nM, respectively. Moreover, the selectivity ratio at 72 h in [8] (human) was found to be 0.81; in data set [8] (setting [12]) it was 9.47.
Consider `N.N.[Cl][Pt][Cl]` [CIS, cisplatin], for which the results for the IC50 in data set [2] (72 h incubation) and in data set [4] (72 h incubation) were 8230 nM and 4170 nM, respectively.
Take `COc1cccc2c1C(=O)c1c(O)c3c(c(O)c1C2=O)C[C@@](O)(C(=O)CO)C[C@@H]3O[C@H]1C[C@H](N)[C@H](O)[C@H](C)O1` [DX, doxorubicin]: the IC50 in data set [1] stood at 20 ± 4 nM; in data set [2] (setting [10]) it was 400 ± 100 nM; in data set [3], 130 ± 50 nM; in [4] (setting [11]), 110 ± 10 nM; in data set [5] it was 110 ± 4 nM; in [6], 260 ± 140 nM. The values for the IC50 in data set [7] and in data set [9] were 170 ± 30 nM and 8740 ± 1460 nM, respectively. Besides, the selectivity ratio at 72 h in data set [8] (human) turned out to be 0.02; in data set [8] (setting [12]), 0.03.
With `CC[C@@H](C(=O)[C@@H](C)[C@@H](O)[C@H](C)CCc1ccc(C)c(O)c1C(=O)O)[C@H]1O[C@](CC)([C@H]2CC[C@](O)(CC)[C@H](C)O2)C[C@@H]1C` [LAS, lasalocid acid], the IC50 in [1] came to 1960 ± 650 nM; in data set [2] (setting [10]), 5550 nM; in [3], 4440 ± 1340 nM; in data set [4] (setting [11]) it was 1370 ± 10 nM; in [5] it was 4050 ± 1020 nM; in data set [6] it was 9110 ± 3650 nM. In addition, the IC50 in [7] was determined as 6810 ± 2850 nM; in data set [9], 4550 ± 270 nM. Besides, the selectivity ratio at 72 h in data set [8] (human) is 1.5; in data set [8] (setting [12]) it was 2.
Turning to `CC[C@@]1([C@@H]2O[C@@H]([C@H]3O[C@@](O)(CO)[C@H](C)C[C@@H]3C)C[C@@H]2C)CC[C@H]([C@]2(C)CC[C@]3(C[C@H](O)[C@@H](C)[C@@H]([C@@H](C)[C@@H](OC)[C@H](C)C(=O)O)O3)O2)O1` [MON, monensin], the IC50 was 30 ± 20 nM in data set [1]; 1170 ± 140 nM in data set [2] (setting [10]); 510 ± 120 nM in data set [3]; 40 ± 20 nM in data set [4] (setting [11]); 90 ± 60 nM in data set [5]; 1100 ± 240 nM in data set [6]. Besides, the IC50 turned out to be 870 ± 230 nM in data set [7] and 260 ± 110 nM in data set [9]. Also, the selectivity ratio at 72 h in the data set “in vitro” (human) worked out at 3.35; in the data set “in vitro” (setting [12]), 4.23.
As to `CC[C@@H](C(=O)[C@@H](C)[C@@H](O)[C@H](C)[C@@H]1O[C@@H]([C@@H](CC)C(=O)O)CC[C@@H]1C)[C@H]1O[C@]2(C=C[C@@H](O)[C@]3(CC[C@@](C)([C@H]4CC[C@](O)(CC)[C@H](C)O4)O3)O2)[C@H](C)C[C@@H]1C` [SAL, salinomycin], the IC50 was found to be 100 ± 30 nM in [1]; 2670 nM in [2] (setting [10]); 930 ± 330 nM in data set [3]; 270 nM in data set [4] (setting [11]); 250 ± 70 nM in [5]; 1550 ± 860 nM in data set [6]. Besides, the IC50 in [7] came to 1280 ± 460 nM; in data set [9], 610 ± 210 nM. Besides, the values for the selectivity ratio at 72 h in “in vitro” (human) and in the data set “in vitro” (setting [12]) were 2.1 and 2.54, respectively.
For `C=C(C)[C@@H]1CC[C@]2(C(=O)NCc3cn([C@H]4C=C[C@]5(O[C@H]([C@@H](CC)C(=O)[C@@H](C)[C@@H](O)[C@H](C)[C@@H]6O[C@@H]([C@@H](CC)C(=O)O)CC[C@@H]6C)[C@@H](C)C[C@H]5C)O[C@@]45CC[C@@](C)([C@H]4CC[C@](O)(CC)[C@H](C)O4)O5)nn3)CC[C@]3(C)[C@H](CC[C@@H]4[C@@]5(C)CC[C@H](O)C(C)(C)[C@@H]5CC[C@]43C)[C@@H]12` [compound 18, Salinomycin-betulinic acid dimer], the IC50 in [1] was 100 ± 90 nM; in data set [2] (setting [10]), 7280 ± 3110 nM; in data set [3], 4190 ± 1820 nM; in data set [4] (setting [11]), 340 ± 130 nM; in data set [5] it was 430 ± 130 nM; in data set [6] it was 4870 ± 1560 nM. For the same molecule, the IC50 in [7] turned out to be 10300 ± 4470 nM; in data set [9] it was 14100 ± 6900 nM. Also, the values for the selectivity ratio at 72 h in the data set “in vitro” (human) and in the data set “in vitro” (setting [12]) were 0.73 and 0.35, respectively.
Regarding `C=C(C)[C@@H]1CC[C@]2(C(=O)OCc3cn([C@H]4C=C[C@]5(O[C@H]([C@@H](CC)C(=O)[C@@H](C)[C@@H](O)[C@H](C)[C@@H]6O[C@@H]([C@@H](CC)C(=O)O)CC[C@@H]6C)[C@@H](C)C[C@H]5C)O[C@@]45CC[C@@](C)([C@H]4CC[C@](O)(CC)[C@H](C)O4)O5)nn3)CC[C@]3(C)[C@H](CC[C@@H]4[C@@]5(C)CC[C@H](O)C(C)(C)[C@@H]5CC[C@]43C)[C@@H]12` [compound 19, Salinomycin-betulinic acid dimer], the IC50 in data set [1] is 290 ± 140 nM; in [2] (setting [10]) it was 7090 ± 2220 nM; in data set [3] it was 6870 ± 3280 nM; in [4] (setting [11]) it was 600 ± 260 nM; in data set [5], 2660 ± 980 nM; in data set [6], 6220 ± 1440 nM. In [7], the IC50 is 7020 ± 2440 nM.
In the case of `C=C(C)[C@@H]1CC[C@]2(C(=O)O)CC[C@]3(C)[C@H](CC[C@@H]4[C@@]5(C)CC[C@H](OC(=O)OCc6cn([C@H]7C=C[C@]8(O[C@H]([C@@H](CC)C(=O)[C@@H](C)[C@@H](O)[C@H](C)[C@@H]9O[C@@H]([C@@H](CC)C(=O)O)CC[C@@H]9C)[C@@H](C)C[C@H]8C)O[C@@]78CC[C@@](C)([C@H]7CC[C@](O)(CC)[C@H](C)O7)O8)nn6)C(C)(C)[C@@H]5CC[C@]43C)[C@@H]12` [compound 20, Salinomycin-betulinic acid dimer], the IC50 was 1920 ± 820 nM in data set [1]; 14700 ± 4880 nM in data set [2] (setting [10]); 21700 ± 5280 nM in data set [3]; 3250 ± 240 nM in [4] (setting [11]); 5180 ± 720 nM in [5]; 18700 ± 4570 nM in data set [6]. Besides, the IC50 in [7] worked out at 30300 ± 13800 nM; in data set [9], 48600 ± 11800 nM. The selectivity ratio at 72 h is 0.62 in “in vitro” (human) and 0.39 in the data set “in vitro” (setting [12]).
